Test results published in paper PMC10700596 (Nature Communications, 2023).

How the values were obtained:
CDK11 = CDK11 (Homo sapiens, UniProt Q9BWU1); test: biochemical; assay type: binding; conditions: 10000 nM; read-out: Percent Control
Excerpt: (§1) . […] This panel includes several adverse drug reaction receptors such as the serotonin receptor 5HT2b, M1 and M2 muscarinic receptors and adrenergic receptors. […]. page 7:
(§2) Supplementary Figure 7: Non-GPCR off-target screening for 74. a)-e) Dose-response curves of 74 at […]
(§3) proliferator-activated receptor gamma (PPARγ, Eurofins item G124). Data in a)-e) and g)-i) represent two technical replicates. Source data are provided as a Source Data file.
(§4) (1 picture or pasted object on this page, not shown here)

ZAP70 = ZAP70 (Homo sapiens, UniProt P43403); test: biochemical; assay type: binding; conditions: 10000 nM; read-out: Percent Control
Excerpt: as §1, §2, §3, §4

DYRK1B = DYRK1B (Homo sapiens, UniProt Q9Y463); test: biochemical; assay type: binding; conditions: 10000 nM; read-out: Percent Control
Excerpt: as §1, §2, §3, §4

IKK-alpha = IKK-alpha (Homo sapiens, UniProt O15111); test: biochemical; assay type: binding; conditions: 10000 nM; read-out: Percent Control
Excerpt: as §1, §2, §3, §4

MET = MET (Homo sapiens, UniProt P08581); test: biochemical; assay type: binding; conditions: 10000 nM; read-out: Percent Control
Excerpt: as §1, §2, §3, §4

PIM1 = PIM1 (Homo sapiens, UniProt P11309); test: biochemical; assay type: binding; conditions: 10000 nM; read-out: Percent Control
Excerpt: as §1, §2, §3, §4

ACVR1B = ACVR1B (Homo sapiens, UniProt P36896); test: biochemical; assay type: binding; conditions: 10000 nM; read-out: Percent Control
ACVR1B, sequence (P36896 24-505): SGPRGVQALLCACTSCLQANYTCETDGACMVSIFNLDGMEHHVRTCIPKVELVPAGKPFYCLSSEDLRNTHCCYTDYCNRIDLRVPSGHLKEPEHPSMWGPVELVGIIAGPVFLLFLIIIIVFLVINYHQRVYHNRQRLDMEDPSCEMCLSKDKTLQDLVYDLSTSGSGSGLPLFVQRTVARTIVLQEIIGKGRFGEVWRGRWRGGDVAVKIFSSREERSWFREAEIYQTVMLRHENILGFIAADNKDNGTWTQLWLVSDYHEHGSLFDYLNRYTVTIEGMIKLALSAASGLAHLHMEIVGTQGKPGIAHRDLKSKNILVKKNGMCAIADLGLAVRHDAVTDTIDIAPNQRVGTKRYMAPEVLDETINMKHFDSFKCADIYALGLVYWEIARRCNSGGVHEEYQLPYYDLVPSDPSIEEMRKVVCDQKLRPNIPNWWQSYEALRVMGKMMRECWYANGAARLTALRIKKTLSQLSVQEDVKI
Excerpt: as §1, §2, §3, §4

BRAF = BRAF (Homo sapiens, UniProt P15056); test: biochemical; assay type: binding; conditions: 10000 nM; read-out: Percent Control
Excerpt: as §1, §2, §3, §4

ERK1 = ERK1 (Homo sapiens, UniProt P27361); test: biochemical; assay type: binding; conditions: 10000 nM; read-out: Percent Control
Excerpt: as §1, §2, §3, §4

SRC = SRC (Homo sapiens, UniProt P12931); test: biochemical; assay type: binding; conditions: 10000 nM; read-out: Percent Control
Excerpt: as §1, §2, §3, §4

[1] = molecular target: ABL1(E255K)-phosphorylated (Homo sapiens, UniProt P00519, E255K); test: biochemical; assay type: binding; conditions: 10000 nM; read-out: Percent Control
Excerpt: as §1, §2, §3, §4

PIK3CG = PIK3CG (Homo sapiens, UniProt P48736); test: biochemical; assay type: binding; conditions: 10000 nM; read-out: Percent Control
Excerpt: as §1, §2, §3, §4

INSR = INSR (Homo sapiens, UniProt P06213); test: biochemical; assay type: binding; conditions: 10000 nM; read-out: Percent Control
Excerpt: as §1, §2, §3, §4

ADCK3 = ADCK3 (Homo sapiens, UniProt Q8NI60); test: biochemical; assay type: binding; conditions: 10000 nM; read-out: Percent Control
ADCK3, sequence (Q8NI60 163-647): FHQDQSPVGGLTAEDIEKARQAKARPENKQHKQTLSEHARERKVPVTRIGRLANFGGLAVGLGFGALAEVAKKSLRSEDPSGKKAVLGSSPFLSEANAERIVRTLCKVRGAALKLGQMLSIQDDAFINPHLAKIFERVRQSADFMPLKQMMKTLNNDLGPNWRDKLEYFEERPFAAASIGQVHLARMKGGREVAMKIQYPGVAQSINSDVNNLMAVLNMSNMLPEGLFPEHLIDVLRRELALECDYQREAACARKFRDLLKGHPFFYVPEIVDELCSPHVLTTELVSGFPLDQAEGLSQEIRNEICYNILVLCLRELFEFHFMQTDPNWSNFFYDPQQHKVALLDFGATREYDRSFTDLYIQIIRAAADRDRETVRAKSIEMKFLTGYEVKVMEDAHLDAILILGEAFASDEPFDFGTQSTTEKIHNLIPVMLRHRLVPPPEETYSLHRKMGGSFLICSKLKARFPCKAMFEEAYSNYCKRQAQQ
Excerpt: as §1, §2, §3, §4

DCAMKL1 = DCAMKL1 (Homo sapiens, UniProt O15075); test: biochemical; assay type: binding; conditions: 10000 nM; read-out: Percent Control
DCAMKL1, sequence (O15075 whole entry): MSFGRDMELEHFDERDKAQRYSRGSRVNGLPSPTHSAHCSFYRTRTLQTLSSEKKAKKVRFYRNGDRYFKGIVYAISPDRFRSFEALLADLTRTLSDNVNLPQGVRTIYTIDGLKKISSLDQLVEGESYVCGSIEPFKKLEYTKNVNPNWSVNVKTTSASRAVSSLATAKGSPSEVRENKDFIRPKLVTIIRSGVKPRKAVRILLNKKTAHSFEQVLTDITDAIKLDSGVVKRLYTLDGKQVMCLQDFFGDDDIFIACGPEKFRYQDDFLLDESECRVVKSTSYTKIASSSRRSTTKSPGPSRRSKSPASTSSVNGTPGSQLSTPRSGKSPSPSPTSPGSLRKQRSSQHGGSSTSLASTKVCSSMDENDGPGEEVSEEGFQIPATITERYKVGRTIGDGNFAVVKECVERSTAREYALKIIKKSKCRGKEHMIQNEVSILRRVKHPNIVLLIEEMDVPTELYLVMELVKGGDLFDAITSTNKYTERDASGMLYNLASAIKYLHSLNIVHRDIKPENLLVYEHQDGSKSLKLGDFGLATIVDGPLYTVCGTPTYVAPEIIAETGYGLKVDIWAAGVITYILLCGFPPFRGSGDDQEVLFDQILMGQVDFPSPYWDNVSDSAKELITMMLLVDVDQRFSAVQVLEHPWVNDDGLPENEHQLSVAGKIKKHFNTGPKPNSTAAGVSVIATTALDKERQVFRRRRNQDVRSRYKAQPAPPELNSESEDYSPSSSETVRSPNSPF
Excerpt: as §1, §2, §3, §4

CHEK1 = CHEK1 (Homo sapiens, UniProt O14757); test: biochemical; assay type: binding; conditions: 10000 nM; read-out: Percent Control
Excerpt: as §1, §2, §3, §4

AKT2 = AKT2 (Homo sapiens, UniProt P31751); test: biochemical; assay type: binding; conditions: 10000 nM; read-out: Percent Control
AKT2, sequence (P31751 whole entry): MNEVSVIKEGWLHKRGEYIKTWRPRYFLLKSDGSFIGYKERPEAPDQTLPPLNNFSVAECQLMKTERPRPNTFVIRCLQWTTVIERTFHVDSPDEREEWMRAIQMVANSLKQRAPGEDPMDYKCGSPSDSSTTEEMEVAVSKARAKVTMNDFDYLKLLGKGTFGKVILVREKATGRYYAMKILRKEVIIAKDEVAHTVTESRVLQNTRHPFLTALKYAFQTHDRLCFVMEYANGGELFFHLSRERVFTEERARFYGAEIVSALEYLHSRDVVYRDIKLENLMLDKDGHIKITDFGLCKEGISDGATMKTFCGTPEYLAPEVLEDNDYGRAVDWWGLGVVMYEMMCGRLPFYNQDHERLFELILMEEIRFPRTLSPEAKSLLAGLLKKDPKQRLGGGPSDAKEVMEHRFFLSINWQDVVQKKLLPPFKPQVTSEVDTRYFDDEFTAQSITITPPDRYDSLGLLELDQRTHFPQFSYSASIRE
Excerpt: as §1, §2, §3, §4

YANK3 = YANK3 (Homo sapiens, UniProt Q86UX6); test: biochemical; assay type: binding; conditions: 10000 nM; read-out: Percent Control
Excerpt: as §1, §2, §3, §4

PRKCE = PRKCE (Homo sapiens, UniProt Q02156); test: biochemical; assay type: binding; conditions: 10000 nM; read-out: Percent Control
Excerpt: as §1, §2, §3, §4

ULK2 = ULK2 (Homo sapiens, UniProt Q8IYT8); test: biochemical; assay type: binding; conditions: 10000 nM; read-out: Percent Control
Excerpt: as §1, §2, §3, §4

ROCK2 = ROCK2 (Homo sapiens, UniProt O75116); test: biochemical; assay type: binding; conditions: 10000 nM; read-out: Percent Control
Excerpt: as §1, §2, §3, §4

FAK = FAK (Homo sapiens, UniProt Q05397); test: biochemical; assay type: binding; conditions: 10000 nM; read-out: Percent Control
Excerpt: as §1, §2, §3, §4

PIK3CA = PIK3CA (Homo sapiens, UniProt P42336); test: biochemical; assay type: binding; conditions: 10000 nM; read-out: Percent Control
PIK3CA, sequence (P42336 whole entry): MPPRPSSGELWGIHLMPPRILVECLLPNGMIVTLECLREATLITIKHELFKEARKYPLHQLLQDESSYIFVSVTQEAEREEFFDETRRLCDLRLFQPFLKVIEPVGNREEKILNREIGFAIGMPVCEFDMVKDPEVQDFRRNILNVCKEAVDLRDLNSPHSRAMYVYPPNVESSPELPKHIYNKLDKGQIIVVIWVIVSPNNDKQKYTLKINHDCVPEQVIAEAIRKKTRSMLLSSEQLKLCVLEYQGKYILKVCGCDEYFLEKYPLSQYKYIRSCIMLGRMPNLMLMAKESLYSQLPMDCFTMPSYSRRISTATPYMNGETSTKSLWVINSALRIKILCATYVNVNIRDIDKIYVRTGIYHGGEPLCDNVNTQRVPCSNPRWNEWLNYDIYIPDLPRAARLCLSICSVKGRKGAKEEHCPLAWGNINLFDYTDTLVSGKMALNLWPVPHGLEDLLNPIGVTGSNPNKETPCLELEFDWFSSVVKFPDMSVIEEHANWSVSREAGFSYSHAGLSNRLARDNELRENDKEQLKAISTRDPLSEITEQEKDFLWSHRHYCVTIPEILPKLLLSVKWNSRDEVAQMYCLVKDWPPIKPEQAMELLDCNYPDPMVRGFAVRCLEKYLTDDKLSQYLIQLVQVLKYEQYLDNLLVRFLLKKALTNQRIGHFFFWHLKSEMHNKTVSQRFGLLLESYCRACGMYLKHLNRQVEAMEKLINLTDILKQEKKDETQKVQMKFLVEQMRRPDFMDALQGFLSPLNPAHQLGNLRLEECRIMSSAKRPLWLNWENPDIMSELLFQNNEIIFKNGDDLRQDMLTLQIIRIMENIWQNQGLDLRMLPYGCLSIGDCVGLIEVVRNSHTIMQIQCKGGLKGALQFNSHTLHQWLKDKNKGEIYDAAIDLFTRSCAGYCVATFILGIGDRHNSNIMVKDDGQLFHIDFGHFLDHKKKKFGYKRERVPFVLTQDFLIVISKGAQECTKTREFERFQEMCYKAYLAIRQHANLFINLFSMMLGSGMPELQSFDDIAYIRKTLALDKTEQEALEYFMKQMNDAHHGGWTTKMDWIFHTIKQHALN
Excerpt: as §1, §2, §3, §4

EGFR = EGFR (Homo sapiens, UniProt P00533); test: biochemical; assay type: binding; conditions: 10000 nM; read-out: Percent Control
Excerpt: as §1, §2, §3, §4

PDPK1 = PDPK1 (Homo sapiens, UniProt O15530); test: biochemical; assay type: binding; conditions: 10000 nM; read-out: Percent Control
Excerpt: as §1, §2, §3, §4

EGFR(L858R) = EGFR(L858R) (Homo sapiens, UniProt P00533, L858R); test: biochemical; assay type: binding; conditions: 10000 nM; read-out: Percent Control
Excerpt: as §1, §2, §3, §4

BTK = BTK (Homo sapiens, UniProt Q06187); test: biochemical; assay type: binding; conditions: 10000 nM; read-out: Percent Control
Excerpt: as §1, §2, §3, §4

CDK7 = CDK7 (Homo sapiens, UniProt P50613); test: biochemical; assay type: binding; conditions: 10000 nM; read-out: Percent Control
Excerpt: as §1, §2, §3, §4

TRKA = TRKA (Homo sapiens, UniProt P04629); test: biochemical; assay type: binding; conditions: 10000 nM; read-out: Percent Control
Excerpt: as §1, §2, §3, §4

SRPK3 = SRPK3 (Homo sapiens, UniProt Q9UPE1); test: biochemical; assay type: binding; conditions: 10000 nM; read-out: Percent Control
Excerpt: as §1, §2, §3, §4

ERBB2 = ERBB2 (Homo sapiens, UniProt P04626); test: biochemical; assay type: binding; conditions: 10000 nM; read-out: Percent Control
ERBB2, sequence (P04626 23-1255): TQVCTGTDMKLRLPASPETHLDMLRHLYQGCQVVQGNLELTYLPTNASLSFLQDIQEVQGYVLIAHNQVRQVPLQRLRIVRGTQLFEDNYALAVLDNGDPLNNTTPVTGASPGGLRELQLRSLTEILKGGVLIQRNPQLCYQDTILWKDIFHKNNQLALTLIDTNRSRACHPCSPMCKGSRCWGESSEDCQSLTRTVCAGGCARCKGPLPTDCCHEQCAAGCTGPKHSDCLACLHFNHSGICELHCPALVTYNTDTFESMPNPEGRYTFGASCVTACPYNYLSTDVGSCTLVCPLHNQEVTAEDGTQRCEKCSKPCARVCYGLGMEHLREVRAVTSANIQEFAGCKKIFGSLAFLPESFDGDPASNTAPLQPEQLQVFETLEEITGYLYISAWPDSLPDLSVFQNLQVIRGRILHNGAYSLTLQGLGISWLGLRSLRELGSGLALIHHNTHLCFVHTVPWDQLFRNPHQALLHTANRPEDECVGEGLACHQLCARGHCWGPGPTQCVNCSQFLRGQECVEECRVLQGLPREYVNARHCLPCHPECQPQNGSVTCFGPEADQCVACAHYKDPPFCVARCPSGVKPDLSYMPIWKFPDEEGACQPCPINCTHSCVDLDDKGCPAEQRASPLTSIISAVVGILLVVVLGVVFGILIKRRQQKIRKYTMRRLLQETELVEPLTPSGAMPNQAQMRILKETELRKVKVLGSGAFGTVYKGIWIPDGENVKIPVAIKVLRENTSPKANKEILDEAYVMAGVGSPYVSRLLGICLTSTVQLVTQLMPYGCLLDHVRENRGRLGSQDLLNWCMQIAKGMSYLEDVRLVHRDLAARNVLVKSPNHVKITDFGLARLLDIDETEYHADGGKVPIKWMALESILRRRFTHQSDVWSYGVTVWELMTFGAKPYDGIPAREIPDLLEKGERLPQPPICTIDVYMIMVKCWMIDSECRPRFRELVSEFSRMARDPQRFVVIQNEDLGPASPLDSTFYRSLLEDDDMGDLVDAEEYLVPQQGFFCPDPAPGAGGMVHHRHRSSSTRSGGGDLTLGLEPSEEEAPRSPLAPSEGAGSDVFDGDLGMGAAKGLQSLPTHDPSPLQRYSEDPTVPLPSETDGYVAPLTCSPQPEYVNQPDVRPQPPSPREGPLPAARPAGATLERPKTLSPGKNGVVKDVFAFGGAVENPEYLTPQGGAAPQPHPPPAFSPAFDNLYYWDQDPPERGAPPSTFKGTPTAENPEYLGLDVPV

EP4R [2] = molecular target: T1, EP4R (Homo sapiens, UniProt P35408); test: cell-based; conditions: read-out: cAMP Assay KB
T1 construct: Tango fusion cassette (only 'tango' is printed); expressed in transfected cells; host or cells: HTLA cells (tTA-dependent luciferase reporter, β-arrestin2-TEV fusion)
T1 sequence (P35408 whole entry, the tested form may be a part): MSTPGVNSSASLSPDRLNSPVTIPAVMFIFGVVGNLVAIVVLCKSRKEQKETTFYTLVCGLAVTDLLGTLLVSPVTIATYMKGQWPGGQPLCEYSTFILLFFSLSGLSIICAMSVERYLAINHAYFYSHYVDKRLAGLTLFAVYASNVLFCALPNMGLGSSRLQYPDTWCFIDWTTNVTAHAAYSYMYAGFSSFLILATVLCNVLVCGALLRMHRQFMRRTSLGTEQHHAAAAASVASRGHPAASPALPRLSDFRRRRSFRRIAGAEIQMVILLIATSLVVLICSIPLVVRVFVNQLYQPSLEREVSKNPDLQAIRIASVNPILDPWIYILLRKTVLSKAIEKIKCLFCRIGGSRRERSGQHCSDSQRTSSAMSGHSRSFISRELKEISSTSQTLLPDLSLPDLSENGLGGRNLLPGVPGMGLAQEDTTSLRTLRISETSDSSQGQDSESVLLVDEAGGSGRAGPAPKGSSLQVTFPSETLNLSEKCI

EP4R [3] = molecular target: T1, EP4R; test: biochemical; assay type: binding; conditions: 3H-PGE2; read-out: Radiologand displacement Ki
[4] = molecular target: T2, prostaglandin D2 (PGD2) receptor (Homo sapiens, UniProt Q9Y5Y4); test: Functional cAMP production assay, PGD2 receptor; assay type: cell-based
T2 sequence (Q9Y5Y4 1-395): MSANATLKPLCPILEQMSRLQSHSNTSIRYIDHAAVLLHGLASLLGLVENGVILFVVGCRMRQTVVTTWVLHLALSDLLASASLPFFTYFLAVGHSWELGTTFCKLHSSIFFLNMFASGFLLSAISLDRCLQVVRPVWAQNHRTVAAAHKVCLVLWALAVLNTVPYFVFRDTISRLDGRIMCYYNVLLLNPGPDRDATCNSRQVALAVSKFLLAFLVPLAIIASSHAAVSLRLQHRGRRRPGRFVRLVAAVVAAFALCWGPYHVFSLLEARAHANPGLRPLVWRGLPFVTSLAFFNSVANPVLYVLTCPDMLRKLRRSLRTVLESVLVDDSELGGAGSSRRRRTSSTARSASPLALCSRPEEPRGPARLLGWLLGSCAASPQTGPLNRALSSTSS

TGFBR1 = TGFBR1 (Homo sapiens, UniProt P36897); test: biochemical; assay type: binding; conditions: 10000 nM; read-out: Percent Control

O=C(O)C1CCC2(CC1)CC(Nc1ncnc3[nH]c4c(F)cccc4c13)C2 (centres unmarked) [Compound 74, OC(=O)C1CCC2(CC(C2)NC=3N=CN=C4NC=5C(F)=CC=CC5C34)CC1] showed a remaining activity at 10 µM (CDK11) of 46%, a remaining activity at 10 µM (ZAP70) of 75% and a remaining activity at 10 µM (DYRK1B) of 74%. It also gave a remaining activity at 10 µM (IKK-alpha) of 42%, a remaining activity at 10 µM (MET) of 100% and a remaining activity at 10 µM (PIM1) of 72%. It also gave a remaining activity at 10 µM (ACVR1B) of 55%, a remaining activity at 10 µM (BRAF) of 86% and a remaining activity at 10 µM (ERK1) of 100%. The remaining activity at 10 µM (SRC) was 88%, the remaining activity at 10 µM [1] was 57% and the remaining activity at 10 µM (PIK3CG) was 3.5%. For the same compound, the remaining activity at 10 µM (INSR) was 90%, the remaining activity at 10 µM (ADCK3) was 85% and the remaining activity at 10 µM (DCAMKL1) was 78%. The remaining activity at 10 µM (CHEK1) was 100%, the remaining activity at 10 µM (AKT2) was 74% and the remaining activity at 10 µM (YANK3) was 62%. The remaining activity at 10 µM (PRKCE) was 57%, the remaining activity at 10 µM (ULK2) was 54% and the remaining activity at 10 µM (ROCK2) was 59%. For the same compound, the remaining activity at 10 µM (FAK) was 97%, the remaining activity at 10 µM (PIK3CA) was 64% and the remaining activity at 10 µM (EGFR) was 96%. The remaining activity at 10 µM (PDPK1) was 64%, the remaining activity at 10 µM (EGFR(L858R)) was 84% and the remaining activity at 10 µM (BTK) was 67%. The remaining activity at 10 µM (CDK7) was 62%, the remaining activity at 10 µM (TRKA) was 11% and the remaining activity at 10 µM (SRPK3) was 67%. The remaining activity at 10 µM (ERBB2) was 49%, the Kb (EP4R [2]) was 16 nM and the Ki (EP4R [3]) was 366 nM. For the same compound, the “off-target activity at prostaglandin D2 receptor” value [4] was “no off-target activities” and the remaining activity at 10 µM (TGFBR1) was 54%.
